± gives the expanded uncertainty stated by the source.
Settings: 283.14 K, Liquid, Vibrating tube method

CCCCCCC(=O)OCC(COC(=O)CCCCCC)(COC(=O)CCCCCC)COC(=O)CCCCCC [pentaerythritol tetraheptanoate]
Settings | mass density [kg/m3]
4946.3 kPa | 988.7 ± 1.2
4953 kPa | 988.7 ± 1.2
4959.8 kPa | 988.6 ± 1.2
4965.7 kPa | 988.6 ± 1.2
4971.9 kPa | 988.7 ± 1.2
4978 kPa | 988.8 ± 1.2
4985.2 kPa | 988.8 ± 1.2
4991.3 kPa | 988.8 ± 1.2
4997.3 kPa | 988.9 ± 1.2
5004.4 kPa | 988.8 ± 1.2
5010.7 kPa | 988.7 ± 1.2
5016.9 kPa | 988.8 ± 1.2
5023.1 kPa | 988.7 ± 1.2
5031.1 kPa | 988.7 ± 1.2
5036.4 kPa | 988.8 ± 1.2
5043.4 kPa | 988.8 ± 1.2
5049.8 kPa | 988.8 ± 1.2
5057 kPa | 988.9 ± 1.2
5063.3 kPa | 988.7 ± 1.2
5069.3 kPa | 988.8 ± 1.2
5075.9 kPa | 988.8 ± 1.2
5083.3 kPa | 988.9 ± 1.2
5089.6 kPa | 988.9 ± 1.2
5095.8 kPa | 988.8 ± 1.2
5103.7 kPa | 988.7 ± 1.2
5110 kPa | 988.8 ± 1.2
5116.5 kPa | 988.9 ± 1.2
5122.9 kPa | 988.8 ± 1.2
5129 kPa | 988.9 ± 1.2
5137 kPa | 988.9 ± 1.2
5192 kPa | 988.9 ± 1.2
5198.7 kPa | 988.9 ± 1.2
5206.7 kPa | 989 ± 1.2
5213.1 kPa | 989 ± 1.2
5219.7 kPa | 988.8 ± 1.2
5227.4 kPa | 988.8 ± 1.2
5234.2 kPa | 988.9 ± 1.2
5241.1 kPa | 988.9 ± 1.2
5247.7 kPa | 988.9 ± 1.2
5255.5 kPa | 988.9 ± 1.2
5262.2 kPa | 988.9 ± 1.2
5269 kPa | 988.9 ± 1.2
5277.1 kPa | 989 ± 1.2
5284.2 kPa | 988.9 ± 1.2
5291.1 kPa | 988.9 ± 1.2
5298.2 kPa | 988.9 ± 1.2
5306.7 kPa | 988.9 ± 1.2
5313.1 kPa | 988.9 ± 1.2
5319.7 kPa | 989 ± 1.2
5326.9 kPa | 988.9 ± 1.2
5335.6 kPa | 988.9 ± 1.2
5342.3 kPa | 988.9 ± 1.2
5349.4 kPa | 988.9 ± 1.2
5357.5 kPa | 989 ± 1.2
5365 kPa | 988.9 ± 1.2
5371.7 kPa | 989 ± 1.2
5380.2 kPa | 989 ± 1.2
5387.5 kPa | 989 ± 1.2
5394.7 kPa | 988.9 ± 1.2
5401.6 kPa | 989.1 ± 1.2
5410.1 kPa | 989 ± 1.2
5417.6 kPa | 989 ± 1.2
5424.8 kPa | 988.9 ± 1.2
5433.5 kPa | 989 ± 1.2
5440.6 kPa | 989.1 ± 1.2
5447.7 kPa | 989.1 ± 1.2
5455.3 kPa | 989 ± 1.2
5463.1 kPa | 989.1 ± 1.2
5471.2 kPa | 989.1 ± 1.2
5478.6 kPa | 989 ± 1.2
5485.9 kPa | 989.1 ± 1.2
5494.7 kPa | 989.1 ± 1.2
5502.5 kPa | 989.1 ± 1.2
5509.9 kPa | 989 ± 1.2
5517.5 kPa | 989.1 ± 1.2
5526.7 kPa | 989.1 ± 1.2
5534 kPa | 989.2 ± 1.2
5541.8 kPa | 989.2 ± 1.2
5549 kPa | 989.1 ± 1.2
5565.4 kPa | 989.1 ± 1.2
5582.7 kPa | 989.1 ± 1.2
5591.5 kPa | 989.2 ± 1.2
5599.8 kPa | 989.1 ± 1.2
5607.5 kPa | 989.2 ± 1.2
5615.5 kPa | 989.2 ± 1.2
5624.1 kPa | 989.1 ± 1.2
5632.1 kPa | 989.2 ± 1.2
5640 kPa | 989.1 ± 1.2
5649.2 kPa | 989.2 ± 1.2
5657 kPa | 989.3 ± 1.2
5665.1 kPa | 989.1 ± 1.2
5674.3 kPa | 989.1 ± 1.2
5682.4 kPa | 989.1 ± 1.2
5690.4 kPa | 989.2 ± 1.2
5697.6 kPa | 989.2 ± 1.2
5705.8 kPa | 989.1 ± 1.2
5714.2 kPa | 989.3 ± 1.2
5724.3 kPa | 989.1 ± 1.2
5732.6 kPa | 989.2 ± 1.2
5739.8 kPa | 989.3 ± 1.2
5774.2 kPa | 989.2 ± 1.2
5783.6 kPa | 989.3 ± 1.2
5791.5 kPa | 989.2 ± 1.2
5800 kPa | 989.2 ± 1.2
5810.4 kPa | 989.3 ± 1.2
5818.7 kPa | 989.3 ± 1.2
5827 kPa | 989.3 ± 1.2
5837 kPa | 989.3 ± 1.2
5845 kPa | 989.2 ± 1.2
5854.3 kPa | 989.2 ± 1.2
5862.6 kPa | 989.3 ± 1.2
5871.8 kPa | 989.2 ± 1.2

Reference: the NIST ThermoML archive (doi:10.1021/je060271a)
